Laboratory results from patent US20240374626A1, “METHODS OF ENHANCING MILK PRODUCTION IN LACTATING MAMMALIAN SUBJECTS” (priority 2023, published 2024).

Legend:
Format in all cases: cell-based, mouse
[1] = system: HC11 cells; experiment: Visualization of FACS-purified HC11 subpopulations sorted on DNA content (nuclei number); settings: sorted on DNA content 4C or >4C
Experimental: (§1) […] Drugs were maintained through the differentiation process and added with every change of media.
Mammary gland CK8+ epithelial cells or HC11 were sorted based on DNA content using BD FACS Aria II Cell Sorter. After sorting, cells were stained in suspension using Phalloidin-iFluor 488 Reagent (Abcam, ab176753) for 30 min at room temperature in darkness. Cells were spined down onto microscopy slides (Fisher, 12-550-15) using Cytospin 2 (Shandon, 599X52) at 500 rpm for 3 min. Cells were mounted using fluoromount-G (Southern Biotech, 0100-01) and visualized using Zeiss Axio Imager Microscope.

[2] = system: HC11 cells; experiment: Milk production markers in differentiated HC11 (milk domes, Csn2 RT-qPCR, CSN2 WB, PLIN2 ICC)
Experimental: (§2) The HC11 cell line was obtained from American Type Culture Collection (ATCC) and routinely checked for mycoplasma (Mycoplasma PCR kit, ABM, G238). Undifferentiated HC11 cells were cultured in growing medium (RPMI-1640; Thermo Fisher Scientific, 72400047), supplemented with 10% FBS, 5 μg/ml insulin (Millipore-Sigma, 16634), 10 ng/ml epidermal growth factor (EGF; Preprotech, AF-100-15) and 1× AntiAnti (Thermo Fisher Scientific, 15240112) at 37° C. with 5% CO2. Cells were grown to confluency and maintained in growing medium for 2 days, until they became competent. Competent HC11 cells were primed for differentiation by culturing them in priming medium [RPMI-1640 supplemented with 5 μg/ml insulin, 1 μM dexamethasone (Millipore-Sigma, D4902-1 G) and 1× Anti-Anti] for 24 h at 37° C. with 5% CO2. To induce differentiation, primed HC11 cells were cultured in DIP Medium [RPMI-1640, supplemented with 10% FBS, 5 μg/ml insulin, 1 μM dexamethasone, 1× anti-anti and 3 μg/ml Prolactin (NHPP, oPRL-21)] at 37° C. with 5% CO2.
as §1
Whole cell lysates were prepared using 1×NP40 lysis buffer (Thermo Fisher Scientific, FNN0021) supplemented with Pierce Protease and Phosphatase inhibitors (Thermo Fisher Scientific, A32959). Cells were washed with ice-cold PBS (GIBCO, 14190136) and lysed direct in buffer and kept at 4° C. rocking at 70 rpm for 30 min. Lysed cells were collected and centrifuged at 12,000 rpm at 4° C. for 15 min. Protein concentration was quantified using Qubit 4 fluorometer (Thermo Fisher, Q33238). Samples were resolved by SDS page and transferred to polyvinylidene difluoride (PVDF, Millipore-Sigma, IPVH00010) for 60 min at 250 mA. Immunoblots were blocked for 1 h at room temperature using either 5% non-fat milk or 5% BSA TBST. Primary antibodies [anti-GAPDH (SCBT, sc-365062), anti-Actin (SCBT, sc-47778), anti-Cyclin B1 (SCBT, sc-245), anti-Cyclin E1 (Millipore-Sigma, SAB4503516) and anti-CSN2 (ABclonal, A12749)] were incubated overnight at 4° C. in a rocker. HRP-conjugated secondary antibodies ([…]) were used for 1 h at room temperature. Immunoblots were developed using Clarity ECL (Bio-Rad), detected using a Bio-Rad ChemiDoc MP Image, and quantified using ImageJ.
HC11 cells were fixed using ice-cold MeOH for 10 min. After washing with 1×PBS, cells were incubated for 1 h at room temperature with primary antibodies [anti-γH2AX (SCBT, sc-517348), anti-pATR (Genetex, GTX128145), anti-PLIN2 (generously provided by Jim McManaman)] in a humid incubation chamber. After incubation, cells were washed three times using 1×PBS and incubated for 1 h at room temperature in darkness using corresponding Alexa Fluor AffiniPure secondary antibodies (Jackson ImmunoResearch) and Phalloidin-iFluor 488 Reagent (Abcam, ab176753) when indicated. Cells were washed three times using 1×PBS and incubated with Hoechst 33342 (AnaSpec, AS-83218) for 10 min. Cells were mounted using fluoromount-G (Southern Biotech, 0100-01) and visualized using Zeiss Axio Imager Microscope. Integrated density of PLIN2, nuclear γH2AX and nuclear pATR was quantify using ImageJ.
For RNA isolation from FACS purified populations, mammary gland cell suspensions were blocked using Mouse BD Fc Block™ (BD Biosciences) for 10 min. Cells were subsequently resuspended on 1×PBS at a density of 10^7 cells/ml and stained with the following antibodies for 30 min on ice: anti-CD24 PE (Stem Cell Technologies, 60099PE.1), anti-CD29 PE-Cy7 (BioLegend, 102222), anti-CD45-APC (BioLegend,105826), Ter119-APC (BD Biosciences, 561033), CD31-ACP (BD Biosciences, 551262). Propidium iodide at a final concentration of 0.5 μg/ml was used for the discrimination of dead cells. Stromal, basal and luminal mammary populations were sorted using a BD FACS Aria II Cell Sorter. […]

[3] = system: HC11 cells; experiment: FACS DNA content analysis of HC11 cells during lactogenic differentiation
Experimental: as §2, §1
For DNA content analysis of the mammary gland CK8^+ epithelial population, mammary gland cells suspension was obtained as described above. Cells were fixed in ice-cold 70% EtOH at a final concentration of 10^6 cells/ml. During fixation, cells were vigorously vortexed for 1 min to avoid the formation of cell aggregates. Cells were washed twice with washing buffer [1×PBS containing 5% FBS and 0.5% tween 20 (Fisher Chemical, BP337500)] and centrifuged at 2,000 rpm for 5 min at 4° C. Cell pellet was incubated for 1 h at room temperature with anti-CK8 (Developmental Studies Hybridoma Lab, TROMA-1), anti-GFP (Thermo Fisher, A01704) or corresponding rat (Thermo-Fisher, 10700) or rabbit (Thermo-Fisher, 10500C) IgG isotype controls. Cells were washed twice and incubated for 1 h at room temperature in darkness with FITC anti-Rat (Thermo Fisher, A24544) or FITC anti-Rabbit (Thermo Fisher, A16030) and APC anti-Rat (Jackson ImmunoResearch, 712-136-153). Cells were washed twice and resuspended in propidium iodide solution [1×PBS containing 25 μg/ml of propidium iodide (Thermo Fisher, P3566) and 100 μg/ml of RNAse (Thermo Fisher, 12091021)]. For DNA content analysis on HC11, cells were washed with 1×DPBS (GIBCO, 14190-250) and harvested using 0.05% Trypsin-EDTA (GIBCO, 25300-062). Cell suspension was washed with 1×DPBS and centrifuged at 1,000 rpm for 5 min at 4° C. Cell pellet was fixed in ice-cold 70% EtOH and then vortexed vigorously to avoid cell aggregates. After fixation, cells were washed with washing buffer [1×PBS (GIBCO, 14190136) supplemented with 5% FBS] and centrifuged at 2,000 rpm for 5 min at 4° C. The pellet was resuspended in propidium iodide solution. Cell suspensions were filtered through a 70 μm cell strainer (Falcon, 08-771-2) and analyzed using a BD LSRII cytometer or a BD FACS Aria II Cell Sorter. Populations were analyzed using FlowJo.

[4] = Ro-3306 5 μM, differentiated HC11 (DIP3)
[5] = blebbistatin 30 uM, differentiated HC11

Row | SMILES | nuclei number of polyploid cells generated (mono-, bi-, multinucleated) ([1]; Ro-3306, differentiated HC11 (DIP3)) | CSN2 expression, RT-qPCR [2, 4] | CSN2 expression, WB [2, 4] | endoreplication / polyploidy (FACS DNA content) ([3]; Ro-3306 5 μM, DIP3) | mitotic arrest / accumulation of tetraploid cells (FACS DNA content) ([3]; undifferentiated HC11 at 80% confluence, Ro-3306 5 μM, 6 hours after treatment) | nuclei number of cells generated (mono-, bi-, multinucleated) ([1]; blebbistatin, differentiated HC11 (DIP3)) | expression of Periplin-2 (PLIN2), ICC [2, 5] | expression of β-Casein (Csn2), RT-qPCR [2, 5] | formation of milk-containing domes [2, 5] | endoreplication / polyploidy (FACS DNA content) ([3]; blebbistatin 30 uM, differentiation day 3 (DIP3)) | mitotic arrest / proportion of tetraploid cells (FACS DNA content) ([3]; undifferentiated HC11 at 80% confluence, blebbistatin 30 uM, 6 hours post-treatment)
1 | O=C1NC(=NCc2cccs2)S/C1=C\c1ccc2ncccc2c1 [Ro-3306] | generates mono-, bi- and multinucleated polyploid cells | increases | increases | undergo further endoreplication, becoming polyploid | efficiently induces mitotic arrest, as detected by the accumulation of tetraploid cells |  |  |  |  |  | 
2 | Cc1ccc2c(c1)C(=O)C1(O)CCN(c3ccccc3)C1=N2 (centres unmarked) [blebbistatin] |  |  |  |  |  | predominantly generates bi- and multinucleated cells | increased expression | increased expression | increase in the formation of milk-containing domes | undergo further endoreplication, becoming polyploid | efficiently induces mitotic arrest in HC11 cells, increasing the proportion of tetraploid cells
